US20250195474A1, “Piezo Inhibition for Wound Healing” (priority 2022, published 2025)
No end group written: not given here.

Assays:
wounds = test: Visium spatial transcriptomic analysis of wounds; assay type: in vivo, mouse
Experimental: Wound specimens were rapidly harvested and flash frozen in OCT. Using the Visium Tissue Optimization Slide and Reagent Kit, permeabilization time was optimized at a thickness at 10 μm per section and 37 minutes for mouse tissue. Following cryo-sectioning at −20 degrees onto gene expression slides the expression slide and reagent kit was used to produce sequencing libraries. The libraries were then sequences using NextSeq (Illumina). Following demultiplication the raw FASTQ files and histology images were processed by sample with the Space Ranger software for genome alignment. The raw spaceranger output files for each sample was then read into a Seurat class object in R using Seurat's Load10× function. Data was normalized using the SCT transform with default parameters. To ascertain the integration of our scRNAseq and Visium spatial analysis we employed the FindTransferAnchors( ) function from Seurat, which allowed the alignment of data using the two datasets. This cross-platform linkage is performed serially in an unconstrained and constrained fashion.

[1] = test system: human foreskin xenograft wounds; test: Human foreskin xenograft wound model; assay type: in vivo; conditions: POD 14
Experimental: For the xenograft model, adult immunocompromised CD-1 nude mice were purchased from The Jackson Laboratory (Bar Harbor, ME). Mice were maintained at the Stanford University Research Animal Facility, SIM-1 Barrier Facility in accordance with Stanford University guidelines. All experiments were performed under an approved APLAC protocol (APLAC #11048). 3 mice were used for each group.
Discarded postnatal human foreskin samples were collected after circumcision at the Lucille Packard Children's Hospital at Stanford under a Stanford University Institutional Review Board (IRB) approved protocol (IRB #45219). Samples were not used if collected >8 hours after circumcision; samples were kept in Dulbecco's Modified Eagle Medium (ThermoFisher Scientific™, Waltham, MA) on ice until grafting. Foreskin was prepared by removal of all subcutaneous tissue, including muscle, and divided into 1 cm sections to be grafted.
Nude mice were induced and maintained with 2-4% isoflurane (Product: 502017, MWI Veterinary Supply Co.®; Boise, ID) at a rate of 2 L/min. While anesthetized, Betadine Surgical Scrub Veterinary (Avrio Health L.P.™, Stamford, CT) and sterile alcohol prep pads (FisherScientific™, Pittsburgh, PA) were used to prepare the dorsum. A 1.2 cm full-thickness excision of dorsal skin was created with forceps and sharp scissors. The foreskin graft was then placed into the full-thickness wound. […]

[2] = test system: human xenograft fibroblasts; test: scRNA-seq of human xenograft wounds at POD 14; assay type: in vivo
Experimental: To assess if P1i acts on similar fibroblast clusters to cause regeneration, scRNA-seq analysis was performed on xenografts harvested at POD 14 post injury using a hybrid human-mouse xeno-transcriptome (FIG. 12A). Mouse cells were removed informatically and subsequent analysis focused exclusively on human cells (FIG. 41A). Partitional analysis identified 8 transcriptionally distinct clusters (FIG. 12B-C), corresponding to fibroblast and keratinocyte populations (FIG. 41A). Each cluster was present in all three treatment conditions but Cluster 3 was elevated in P1i treated wounds (FIG. 12D, FIG. 41B). […] This cluster was also enriched for pathways such as “skin morphogenesis”, as well as “neural crest differentiation” (FIG. 12G). By contrast, Cluster 0 was enriched for pathways related to adipocyte differentiation (FIG. 41C) and elevated expression of genes related to adipocyte-fibroblast transition (FIG. 41C) including expression of JUN a transcription factor associated with fibrosis (FIG. 41D).

wound cells = test: scRNA-seq and CellChat analysis of POD 14 wounds

## GsMTx4 (GCLEFWWKCNPNDDKCCRPKLKCSKLFKLCNFSF; ends and bridges not checked; cysteine pairing not given here; UniProt Q7YT39 47-80, looked up) [P1i]
wounds; POD 14
  differential interaction maps (Visium): strong interactions between adipocytes and fibroblasts
  fibroblast scRNA-seq cluster 0 (mechanically sensitive) spatial enrichment: highly enriched in PBS-treated POD 14 wounds compared to P1i or P2i treated wounds
  fibroblast scRNA-seq cluster 5 (mechanically naive) spatial presence: observed
  spatial expression of Piezo1, Piezo2, Ptk2 and Yap1: appeared mostly at the basal region
  spatially variable features (gene expression): high expression of markers associated with the epidermis including Krt1 and Krt14
wounds; POD 14, vs PBS
  adipocyte and epithelial cells in the spatial environment: enriched
[1]
  ECM ultrastructure: indistinguishable from that of unwounded xenograft skin
[2]; POD 14
  expression of TWIST2, WNT5A, CALU and SFRP2: highly expressed
  representation of human cluster 3: elevated
[2]; POD 14, vs control wounds
  CellChat cluster 0 activity with other clusters: downregulation
Wound cells; POD 14
  relative adipocytes and fibroblasts among sequenced wound cells: relatively more adipocytes and fewer fibroblasts
Wound cells; POD 14, vs control wounds
  CellChat interactions between cluster 5 fibroblasts and adipocytes: enhanced interactions between cluster 5 fibroblasts and adipocytes
  CellChat signaling of adipocyte pathways (Leptin, Chemerin, PD-L1): enhanced signaling of known adipocyte pathways
  CellChat signaling of cluster 5 fibroblasts with other cell types: increase in signaling between cluster 5 fibroblasts and most other cell types
